Test results taken from article PMC4062444, “Mechanisms of U87 Astrocytoma Cell Uptake and Trafficking of Monomeric versus Protofibril Alzheimer’s Disease Amyloid-β Proteins” (PLoS ONE, 2014).
Counter-ions that a name gives are not always drawn.

Assays:
[1] = system: U87 human brain astrocytoma cell line; experiment: Uptake of HiLyte Fluor555-tagged Aβ42 peptides by U87 cells (confocal microscopy); format: cell-based; conditions: for reduction of oAβ42 uptake by U87 cells / reduction of sAβ42 uptake by U87 cells: inhibitor pretreatment (5 mM amiloride 30 min; 300 nM wortmannin 1 h; 1 mM MβCD 30 min), integrated intracellular fluorescence vs mock-treated cells, >25 cells in each of three experiments; for reduction of oAβ42 uptake by U87 cells: then 0.4 µM HiLyte Fluor555-oAβ42 2 h at 37°C; for reduction of sAβ42 uptake by U87 cells: then 0.4 µM HiLyte Fluor555-sAβ42 2 h at 37°C; for effect of Dyn 1 dominant-negative K44A mutant on uptake: U87 cells expressing GFP-tagged Dyn1 K44A, 0.4 µM peptide 2 h at 37°C
Experimental: U87 cells were seeded on coverslips and grown at 37°C overnight in complete medium. Uptake experiments were initiated by incubating cells at 37°C with 0.4 µM HiLyte Fluor555-tagged Aβ42 peptides for 2 h, which were diluted in imaging medium (α-MEM without phenol red supplemented with 20 mM HEPES, pH 7.4, and 5% FBS). Cells were subsequently washed three times with ice-cold PBS, fixed with 3.7% PFA for 20 min and stained with 1 µg/ml DAPI diluted in PBS containing 0.1% saponin for 15 min at room temperature. Then, cells were mounted with a mounting solution containing 50% glycerol and 50% PBS. For endocytosis inhibition experiments, cells were pretreated with various endocytotic inhibitors with indicated times followed by Aβ42 peptides uptake in the presence or absence of these inhibitors.
Briefly, in most cases, the integrated intracellular signals were determined from a 2D projection image of the fluorescence intensities of a Z-stack lacking the most bottom and top planes as they mostly contain plasma membrane signals. The cell outline in each plane was determined by increasing the brightness of the image. In some cases, bright field images were also taken to help identify the cell outlines. The integrated fluorescence within the cell was background-corrected by subtraction of the fluorescence signal surrounding the cell under analysis and its value was then normalized to the mean (average) of the control cells set to 100. For plain cells in the absence or presence of various pharmacological treatment, all intact cells in each image field were used for quantification of Aβ uptake; for cells transfected with plasmids, only the positively transfected cells were used for quantification of Aβ uptake, which was estimated from the EGFP signal in green channel.

U87 cells [2] = experiment: Localization of internalized Aβ42 within the endolysosomal system; format: cell-based, human; conditions: live-cell confocal; for fraction transported into early endosomes (EGFP-Rab5): U87 cells transfected with EGFP-Rab5, 0.4 µM peptide for 15 min, 30 min, 1 h or 2 h; for fraction localized to Lysotracker Green positive vesicles (lysosomes): U87 cells, 0.4 µM peptide for 30 min to 3 h, 50 nM LysoTracker Green
Experimental: The trafficking of fluro-tagged monomeric and oligomeric Aβ42 was measured as follows. To examine the localization in early endosomes, cells were transfected with EGFP-Rab5 plasmid to label early endosomes. 24 h after transfection, cells were treated with Aβ42 peptides for indicated time periods. After changing with the fresh imaging medium, live cell imaging was then taken using a confocal microscope with an objective heater (set at 37°C). To examine the localization of peptides in lysosomes, plain cells were first treated with Aβ42 peptides for indicated time periods, and 30 min before taking imaging, lysotracker Green were supplemented in the incubation medium (50 nM) to label lysosomes. Afterwards, fresh medium was changed and live cell imaging was taken.
Images were deconvolved using AutoQuant, a 50-pixel-wide rolling-ball subtraction algorithm was subsequently used to remove background noise. The sub-stacks of 3 sections spanning 0.4 µm were generated and imported to ImageJ for analysis. Manders’ coefficient was calculated using ImageJ plugin “JACop”. The percentage was scored as the Aβ puncta signals that are positive for EGFP-Rab5 or Lysotracker Green signals with respect to the total number of Aβ puncta.

U87 cells [3] = system: U87 cells
Experimental: Cells maintained in the serum free medium without Aβ were used as negative control. Following addition of 20 µl MTS reagent into each well, plates were incubated at 37°C for 4 h. The formazan product was quantified by measuring absorbance at 490 nm with a Microplate Reader (Molecular Devices, Sunnyvale, CA, USA). All the experiments were repeated three times.

ThT fluorescence assay = format: physicochemical; conditions: 10 µM ThT in deionized water, pH 7.4; ex 450 nm, em 482 nm; Aβ42 0 to 30 µM
Experimental: The assay was performed according to a standard protocol. A 200 µM aqueous Thioflavin T (ThT) was prepared and filtered through 0.22 µm filter. For measurement, Aβ42 samples (monomers or oligomers) were prepared in 10 µM ThT/deionized water solution, pH 7.4. Immediately after mixing, ThT fluorescence of samples was measured with the excitation wavelength at 450 nm and emission wavelength at 482 nm with 470 nm cut-off by a Microplate Reader (Molecular Devices, Sunnyvale, CA, USA).

[4] = Transmission electron microscopy of oligomer preparation; format: physicochemical; conditions: TEM, 100 µM oAβ42, 1% uranyl acetate stain, 32,000×
Experimental: Aβ42 oligomers were applied to formvar-coated 300-mesh copper grids for 2 min and excess fluid was filtered off. The samples were then stained with 1% uranyl acetate for 1 min, excess fluid was filtered off and the grids were examined with H-8100 transmission electron microscope (Hitachi, Tokyo, Japan) operated at 150 KV and 32,000× magnification.

U87 cells [5] = system: U87 cells; remark: listed apart in the source
Experimental: Cells were incubated in fresh DMEM containing 0.4 µM fluro-tagged Aβ42 monomers or oligomers for 2 h. After extensively wash, cells were chased in fresh completed medium with indicated times up to 72 hours. Cells were subsequently fixed, stained with DAPI and mounted as described above. Images acquisition and analysis were performed as described below.
Estimation of the half-life and rate constants for degradation of Aβ42 peptides were made by fitting data using a single-phase exponential decay equation (Origin, ver. 6.0).

astrocytic U87 cells = conditions: 20 µM Aβ, cited from earlier work
Text: We assumed that U87 cells tolerated the toxic effects of Aβ42 species better than the neurons, particularly because we used relatively low concentrations of Aβ peptides, which could be rapidly cleared by U87 cells and produced negligible cellular toxicity. This property assigns a neuronal protection role to astrocytes because they can promptly clear Aβ ...

COC[C@H]1OC(=O)c2coc3c2[C@@]1(C)C1=C(C3=O)[C@@H]2CCC(=O)[C@@]2(C)C[C@H]1OC(C)=O [wortmannin]
reduction of oAβ42 uptake by U87 cells [1]: 37% | reduction of sAβ42 uptake by U87 cells [1]: 55%

N=C(N)NC(=O)c1nc(Cl)c(N)nc1N [amiloride, Amiloride hydrochloride hydrate]
reduction of oAβ42 uptake by U87 cells [1]: 92% | reduction of sAβ42 uptake by U87 cells [1]: 61%

Methyl-β-cyclodextrin [MβCD]
reduction of oAβ42 uptake by U87 cells [1]: 48% | reduction of sAβ42 uptake by U87 cells [1]: 46%

oAβ42: protofibril, an oligomeric assembly of Aβ42 prepared from sAβ42 at pH 2.0, 37°C, 24 h
fraction transported into early endosomes (EGFP-Rab5) (U87 cells [2]): low fraction | fraction localized to Lysotracker Green positive vesicles (lysosomes) (U87 cells [2]): increased with prolonged Aβ42 treating time | U87 cell growth / viability (U87 cells [3]): not inhibited | ThT fluorescence after titration with Aβ42 solution (ThT fluorescence assay): increased in a nearly linear-manner | average length of oligomers on electron micrographs [4]: < 150 nm | diameter of oligomers on electron micrographs [4]: approximately 5 nm | effect of Dyn 1 dominant-negative K44A mutant on uptake [1]: no effect | half-time (t0.5) of degradation in U87 cells (U87 cells [5]): 8.31 h

Aβ: Aβ used by Wang et al. (ref 36, amyloid-beta1–42) on U87 cells
viability of U87 cells (astrocytic U87 cells; autophagic cell death): did decrease | apoptosis of U87 cells (astrocytic U87 cells): not induced to undergo apoptosis

O=C(N/N=C/c1ccc(O)c(O)c1)c1cc2ccccc2cc1O [Dynasore]
oAβ42 entry after Dynasore treatment ([1]; Dynasore pretreatment, then oAβ42 2 h at 37°C, confocal microscopy): almost entirely blocked | internalization of sAβ42 after Dynasore treatment ([1]; Dynasore pretreatment, then sAβ42 2 h at 37°C, confocal microscopy): strongly blocked

sAβ42: soluble monomeric HiLyte Fluor555-labeled Aβ42 (Anaspec) dissolved in 0.1% NH4OH
fraction transported into early endosomes (EGFP-Rab5) (U87 cells [2]): low fraction | fraction localized to Lysotracker Green positive vesicles (lysosomes) (U87 cells [2]): increased with prolonged Aβ42 treating time | U87 cell growth / viability (U87 cells [3]): not inhibited | ThT fluorescence after titration with Aβ42 solution (ThT fluorescence assay): basal fluorescence level | effect of Dyn 1 dominant-negative K44A mutant on uptake [1]: no effect | half-time (t0.5) of degradation in U87 cells (U87 cells [5]): 2.68 h
